Measurements reported in patent publication US20210278408A1, “METHODS OF TREATMENT OF CANCER WITH SUBSTITUTED PYRROLE AND PYRAZOLE COMPOUNDS AND DIAGNOSIS OF CANCERS SUSCEPTIBLE TO TREATMENT WITH SUBSTITUTED PYRROLE AND PYRAZOLE COMPOUNDS” (Bantam Pharmaceutical, LLC, priority 2018, published 2021).
Like-named read-outs stand apart in the source and are kept apart here.

Experiments:
SU-DHL-6 = assay: Anti-proliferative activity, CellTiter-Glo, 72 hours: SU-DHL-6; assay type: cell-based, human; details: Homo sapiens, SU-DHL-6 (B-cell lymphoma), Cell-Titre-Glo
Experimental: (§1) Anti-proliferative activity of BTM compounds. The anti-proliferative activities of Compound A197 and Compound B19 were compared to 4EGI-1 (a known cancer cell growth inhibitor) in a panel of 99 tumor lines. Methods: A panel of 96 tumor and 3 normal cell lines were tested for sensitivity to the test compound. The cell lines were cultured in standard media and pipetted into 96-well plates at the required plating densities. The cells were acclimated for 24 hours prior to compound testing. Compound was prepared as a stock of 20 mM in DMSO. To prepare dose response curves compound was serially diluted in DMSO and dispensed into the plate wells using a Tecan D300e digital dispenser. The final DMSO concentration was 0.15%. After 72 hours of incubation cell number was determined using the CellTiter-Glo® protocol according to the manufacturers instructions (Promega). In this assay, ATP is measured as a surrogate of cell number. The activity of the compound is determined by comparing untreated cells with treated cells and calculating the % of signal retained. Compound activity is measured as an EC50 of maximum level of efficacy and the two are used to compute an activity area. The table below provides a comparison of activity in a data sample.

NHLF = assay: Anti-proliferative activity, CellTiter-Glo, 72 hours: NHLF; assay type: cell-based; details: NHLF (human lung fibroblast), Cell-Titre-Glo
Experimental: as §1

SU-DHL-10 = assay: Anti-proliferative activity, CellTiter-Glo, 72 hours: SU-DHL-10; assay type: cell-based, human; details: Homo sapiens, SU-DHL10, SU-DHL-10 (B-cell lymphoma), Cell-Titre-Glo
Experimental: as §1

MDA-MB-157 = assay: Anti-proliferative activity, CellTiter-Glo, 72 hours: MDA-MB-157; assay type: cell-based, human; details: Homo sapiens, MDA-MB-157, 72 h
Experimental: as §1

LoVo = assay: Anti-proliferative activity, CellTiter-Glo, 72 hours: LoVo; assay type: cell-based, human; details: Homo sapiens, LoVo (colorectal cancer), Cell-Titre-Glo
Experimental: as §1

HUVEC = assay: Anti-proliferative activity, CellTiter-Glo, 72 hours: HUVEC; assay type: cell-based, human; details: Homo sapiens, HUVEC (primary endolithial cells), Cell-Titre-Glo
Experimental: as §1

HK-2 = assay: Anti-proliferative activity, CellTiter-Glo, 72 hours: HK-2; assay type: cell-based, human; details: Homo sapiens, HK-2 (kidney epilithial), Cell-Titre-Glo
Experimental: as §1

Jurkat = assay: Anti-proliferative activity, CellTiter-Glo, 72 hours: Jurkat; assay type: cell-based, human; details: Homo sapiens, Jurkat (T cell leukemia), Cell-Titre-Glo
Experimental: as §1

MIA PaCa-2 = assay: Anti-proliferative activity, CellTiter-Glo, 72 hours: MIA PaCa-2; assay type: cell-based, human; details: Homo sapiens, MIA PaCa-2 (pancreactic cancer (carcinoma)), Cell-Titre-Glo
Experimental: as §1

A549 = assay: Anti-proliferative activity, CellTiter-Glo, 72 hours: A549; assay type: cell-based, human; details: Homo sapiens, A549 (non-small cell lung cancer), Cell-Titre-Glo
Experimental: as §1

SU-DHL-4 = assay: Anti-proliferative activity, CellTiter-Glo, 72 hours: SU-DHL-4; assay type: cell-based, human; details: Homo sapiens, SU-DHL-4 (B-cell lymphoma), Cell-Titre-Glo
Experimental: as §1

HT-1080 = assay: Anti-proliferative activity, CellTiter-Glo, 72 hours: HT-1080; assay type: cell-based, human; details: Homo sapiens, HT-1080 (fibrosarcoma), Cell-Titre-Glo
Experimental: as §1

MDA-MB-231 = assay: Anti-proliferative activity, CellTiter-Glo, 72 hours: MDA-MB-231; assay type: cell-based, human; details: Homo sapiens, MDA-MB-231 (breast cancer), Cell-Titre-Glo
Experimental: as §1

LS 174T = assay: Cell viability, CellTiter-Glo, 96 h: LS 174T; assay type: cell-based
Experimental: (§2) Viability was determined by using the 50% inhibitory concentration (IC50) as determined with the CellTiter-Glo® Viability Assay (Promega). All cells were cultured under standard conditions in media supplemented with 10-15% Fetal Bovine Serum, at a temperature of 37° C., 5% CO2 and 95% humidity.
(§3) Cells were harvested during the logarithmic growth period, counted, and the cell concentration adjusted to 4.44×10^4 cells/mL using culture medium. A final cell density of 4×10^3 cells/well was added in a 90 μL cell suspension to plates A and B as shown.
(§4) Test plate B was incubated for 96 h in the humidified incubator at 37° C. with 5% CO2.
(§5) Following the incubation, the plate was equilibrated at room temperature for thirty minutes. CellTiter-Glo® (50 μL) was added to each well of the plate and contents mixed for five minutes on an orbital shaker to induce cell lysis. The luminescent signal was allowed to stabilize at room temperature for 20 minutes and the luminescence recorded.
(§6) IC50 (EC50) was calculated using a dose-response curve, fitted using a nonlinear regression model with a sigmoidal dose response. Survival rate was calculated using the formula:
(§7) The Surviving rate (%)=(LumTest article−LumMedium control)/(LumNon-treated−LumMedium control)×100%.
(§8) Absolute IC50 (EC50) was calculated according to the dose-response curve generated by the statistical software (GraphPad Prism 5.0).

143B = assay: Cell viability, CellTiter-Glo, 96 h: 143B; assay type: cell-based; details: for IC50: read-out: Absolute IC50
Experimental: as §2, §3, §4, §5, §6, §7, §8

KU812 = assay: Cell viability, CellTiter-Glo, 96 h: KU812; assay type: cell-based; details: for IC50: read-out: Absolute IC50
Experimental: as §2, §3, §4, §5, §6, §7, §8

D283 Med = assay: Cell viability, CellTiter-Glo, 96 h: D283 Med; assay type: cell-based; details: for IC50: read-out: Absolute IC50
Experimental: as §2, §3, §4, §5, §6, §7, §8

JHH-6 = assay: Cell viability, CellTiter-Glo, 96 h: JHH-6; assay type: cell-based; details: for IC50: read-out: Absolute IC50
Experimental: as §2, §3, §4, §5, §6, §7, §8

HUH-6 CLONE5 = assay: Cell viability, CellTiter-Glo, 96 h: HUH-6 CLONE5; assay type: cell-based; details: for IC50: read-out: Absolute IC50
Experimental: as §2, §3, §4, §5, §6, §7, §8

[1] = Cell No. 407, read-out: Absolute IC50

SMILES	IC50 (SU-DHL-6) [nM]	IC50 (NHLF) [nM]	IC50 (SU-DHL-10) [nM]	IC50 (MDA-MB-157) [nM]	IC50 (LoVo) [nM]	IC50 (HUVEC) [nM]	IC50 (HK-2) [nM]	IC50 (Jurkat) [nM]	IC50 (MIA PaCa-2) [nM]	IC50 (A549) [nM]	IC50 (SU-DHL-4) [nM]	IC50 (HT-1080) [nM]	IC50 (MDA-MB-231) [nM]	% inhibition at top conc. (LS 174T; Cell No. 406) [%]	% inhibition at top conc. (LS 174T; Cell No. 407) [%]	IC50 (LS 174T; [1]) [nM]	% inhibition at top conc. (143B) [%]	% inhibition at top conc. (KU812) [%]	% inhibition at top conc. (D283 Med) [%]	% inhibition at top conc. (JHH-6) [%]	further results
COC(=O)c1c(-c2cccc(F)c2)c(C)nn1-c1nc(C2=CCC(C(F)(F)F)CC2)c(SC(C)C)s1 (single isomer, unassigned) [Compound B19, methyl 4-(3-fluorophenyl)-1-(5-(isopropylthio)-4-(4-(trifluoromethyl)cyclohex-1-en-1-yl)thiazol-2-yl)-3-methyl-1H-pyrazole-5-carboxylate]	538	> 30000	119	> 30000	116	> 30000	> 30000	166	447	189	360	528	> 30000	–	–	–	–	–	–	–	–
N.N.[Cl][Pt][Cl] [Cisplatin, reference compound]	–	–	–	–	–	–	–	–	–	–	–	–	–	96.60	96.74	8540	99.94	99.20	99.39	95.32	IC50 (LS 174T; Cell No. 406, read-out: Absolute IC50): 5890 nM; IC50 (143B): 3200 nM; IC50 (KU812): 1950 nM; IC50 (D283 Med): 700 nM; IC50 (JHH-6): 3120 nM; % inhibition at top conc. (HUH-6 CLONE5): 99.43%; IC50 (HUH-6 CLONE5): 6330 nM
Cc1nn(-c2nc(-c3ccc(C(F)(F)F)cc3)c(SC(C)C)s2)c(C(=O)O)c1-c1cccc(F)c1 [Compound A197, 4-(3-fluorophenyl)-1-(5-(isopropylthio)-4-(4-(trifluoromethyl)phenyl)thiazol-2-yl)-3-methyl-1H-pyrazole-5-carboxylic acid]	521	> 30000	136	> 30000	123	> 30000	> 30000	179	623	312	288	725	> 30000	15.79	27.00	> 30000	27.55	27.53	66.67	45.19	IC50 (LS 174T; Homo sapiens, LS174T, Cell No. 406, read-out: Absolute IC50): > 30000 nM; IC50 (143B; Homo sapiens): > 30000 nM; IC50 (KU812; Homo sapiens): > 30000 nM; IC50 (D283 Med; Homo sapiens): > 30000 nM; IC50 (JHH-6): > 30000 nM; % inhibition at top conc. (HUH-6 CLONE5): 11.18%; IC50 (HUH-6 CLONE5): > 30000 nM
